Measured values: patent US9963446B2, “Oxepan-2-yl-pyrazol-4-yl-heterocyclyl-carboxamide compounds and methods of use” (Genentech, Inc., priority 2014, dated 2018)

Assays:
PIM1 = PIM1 (Homo sapiens (Human), UniProt P11309); test: Pim kinase binding activity (PIM1 LC3K Ki); format: biochemical; conditions: 20 pM PIM1, 10 μM ATP, 90 minutes
Protocol: PIM-1, -2, and -3 enzymes were generated as fusion proteins expressed in bacteria and purified by IMAC column chromatography (Sun, X., Chiu, J. F., and He, Q. Y. (2005) Expert Rev. Proteomics, 2:649-657). A fluorescent-labeled Pim-specific peptide substrate, was custom synthesized by American Peptide Company (Sunnyvale, Calif.). Reaction Buffer contained 10 mM HEPES, pH 7.2, 10 mM MgCl2, 0.01% Tween 20, 2 mM DTT. Termination Buffer contained 190 mM HEPES, pH 7.2, 0.015% Brij-35, 0.2% Coating Reagent 3 (Caliper Life Sciences, Hopkinton, Mass.), 20 mM EDTA. Separation Buffer contained 100 mM HEPES, pH 7.2, 0.015% Brij-35, 0.1% Coating Reagent 3, 1:200 Coating Reagent 8 (Caliper Life Sciences, Hopkinton, Mass.), 10 mM EDTA and 5% DMSO.
PIM reactions were carried out in a final volume of 10 μL per well in a 384-well plate. A standard enzymatic reaction, initiated by the addition of 5 μL 2×ATP and test compound to 5 μL of 2× enzyme and FAM-peptide, contained 20 pM PIM1, 50 pM PIM2, or 55 pM PIM3, 1 μM FAM-peptide, and 10 μM ATP, in Reaction Buffer. After 90 minutes of incubation at room temperature, the phosphorylation reaction was stopped by the addition of 10 μL Termination Buffer. The product and substrate in each independent reaction were separated on a 12-sipper microfluidic chip (Caliper Life Sciences, Hopkinton, Mass.) run on a Caliper LC3000® (Caliper Life Sciences, Hopkinton, Mass.). The separation of product and substrate was optimized by choosing voltages and pressure using Caliper's Optimizer software (Hopkinton, Mass.). The separation conditions used a downstream voltage of −500V, an upstream voltage of −2150V, and a screening pressure of −1.2 psi. The product and substrate fluorophore were excited at 488 nm and detected at 530 nm. Substrate conversion was calculated from the electropherogram using HTS Well Analyzer software (Caliper Life Sciences, Hopkinton, Mass.). Ki values for the test compound were calculated. See Table 1 for representative PIM1 LC3K Ki in micromolar values of exemplary compounds.

BaF3 parental cells = test: In vitro cell proliferation, BaF3 parental line + IL3; format: cell-based, murine; conditions: Mus musculus; BaF3 parental line with mIL-3, incubated overnight; read-out: Prolif BaF3 + IL3 (IC50)
Protocol: (§1) BaF3 parental line was obtained from the DSMZ repository. BaF3 lines transfected with PIM1 or PIM2 were generated. Mouse IL-3 was purchased from R&D Systems. G418 was purchased from Clontech. Media for BaF3 parental line contained RPMI, 10% FBS, 2 mM L-Glutamine, 2 ng/mL mIL-3. Media for BaF3 PIM1 & 2 lines contained RPMI, 10% FBS, 2 mM L-Glutamine, […]. Media for MM1.S (multiple myeloma cells) line contained RPMI, 10% FBS, 2 mM L-Glutamine.
(§2) BaF3, a murine interleukin-3 dependent pro-B cell line, parental cells, BaF3 PIM1 cells, BaF3 PIM2 cells, and MM1.S (multiple myeloma) cells were seeded at 2 k/well, 5 k/well, 5 k/well, and 10 k/well respectively, in a 384-well plate, at 45 μL/well. Test compound was added at 5 μL/well. BaF3 cells (parental and transfected) were incubated overnight, while MM1.S cells were incubated for 72 hours at 37° C., 5% CO2. CELL TITER GLO® Reagent (Promega) was added at 50 μL/well, the plates were incubated for 30 minutes, and their luminescence read on an HT Analyst. IC50/EC50 values for the test compound were calculated.

BaF3 PIM1 cells = test: In vitro cell proliferation, BaF3 transfected with PIM1; format: cell-based, murine; conditions: Mus musculus; BaF3 PIM1 line, incubated overnight; read-out: Prolif BaF3 PIM1 (IC50)
Protocol: as §1, §2

[1] = system: MM1.S (multiple myeloma) cells; test: In vitro cell proliferation, MM1.S (CELL TITER GLO); format: cell-based; conditions: Homo sapiens, 72 hours, read-out: Prolif MM1S ATP (EC50)
Protocol: as §1, §2

Chain of PIM1 (P11309 whole entry, the tested form may be a part): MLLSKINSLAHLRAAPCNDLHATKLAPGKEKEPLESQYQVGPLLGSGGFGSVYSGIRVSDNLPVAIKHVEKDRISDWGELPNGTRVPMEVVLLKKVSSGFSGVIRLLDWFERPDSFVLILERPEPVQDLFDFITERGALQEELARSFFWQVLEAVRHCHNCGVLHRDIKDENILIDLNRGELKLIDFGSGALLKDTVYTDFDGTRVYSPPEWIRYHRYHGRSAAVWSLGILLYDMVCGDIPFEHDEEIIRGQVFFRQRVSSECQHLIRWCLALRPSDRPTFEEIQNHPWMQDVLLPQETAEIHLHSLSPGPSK

C[C@H](F)c1cc(F)c(-c2nc(C(=O)Nc3cnn(C)c3[C@@H]3CC[C@@H](N)[C@H](F)CO3)cs2)c(F)c1 [Example 101, N-(5-((2S,5R,6S)-5-amino-6-fluorooxepan-2-yl)-1-methyl-1H-pyrazol-4-yl)-2-(2,6-difluoro-4-((S)-1-fluoroethyl)phenyl)thiazole-4-carboxamide]
Ki (PIM1): 0.002 nM
IC50 (BaF3 parental cells): 7100 nM
IC50 (BaF3 PIM1 cells): 24.8 nM
EC50 [1]: 441 nM

Cn1ncc(NC(=O)c2csc(-c3c(O)cccc3F)n2)c1[C@@H]1CC[C@@H](N)[C@H](F)CO1 [Example 102, N-[5-[(2S,5R,6S)-5-amino-6-fluoro-oxepan-2-yl]-1-methyl-pyrazol-4-yl]-2-(2-fluoro-6-hydroxy-phenyl)thiazole-4-carboxamide]
Ki (PIM1): 0.121 nM
IC50 (BaF3 parental cells): 9100 nM
IC50 (BaF3 PIM1 cells): 164 nM
EC50 [1]: 702 nM

N[C@H]1CC[C@H](c2c(NC(=O)c3csc(-c4c(F)cccc4F)n3)cnn2C2CC2)OC[C@@H]1F [Example 103, N-[5-[(2R,5S,6R)-5-amino-6-fluoro-oxepan-2-yl]-1-cyclopropyl-pyrazol-4-yl]-2-(2,6-difluorophenyl)thiazole-4-carboxamide]
Ki (PIM1): 0.18 nM
IC50 (BaF3 parental cells): 12000 nM
IC50 (BaF3 PIM1 cells): 145 nM
EC50 [1]: 731 nM

Cn1ncc(NC(=O)c2csc(-c3ccc4c(c3)CCO4)n2)c1[C@@H]1CC[C@@H](N)[C@H](F)CO1 [Example 104, N-[5-[(2S,5R,6S)-5-amino-6-fluoro-oxepan-2-yl]-1-methyl-pyrazol-4-yl]-2-(2,3-dihydrobenzofuran-5-yl)thiazole-4-carboxamide]
Ki (PIM1): 0.104 nM
IC50 (BaF3 parental cells): 13200 nM
IC50 (BaF3 PIM1 cells): 98.5 nM
EC50 [1]: 544 nM

Cn1ncc(NC(=O)c2csc(-c3cnccn3)n2)c1[C@@H]1CC[C@@H](N)[C@H](F)CO1 [Example 105, N-[5-[(2S,5R,6S)-5-amino-6-fluoro-oxepan-2-yl]-1-methyl-pyrazol-4-yl]-2-pyrazin-2-yl-thiazole-4-carboxamide]
Ki (PIM1): 0.095 nM
IC50 (BaF3 parental cells): > 25000 nM
IC50 (BaF3 PIM1 cells): 142 nM
EC50 [1]: 473 nM

C[C@@H](F)c1cc(F)c(-c2nc(C(=O)Nc3cnn(C)c3[C@@H]3CC[C@@H](N)[C@H](F)CO3)cs2)c(F)c1 [Example 106, N-(5-((2S,5R,6S)-5-amino-6-fluorooxepan-2-yl)-1-methyl-1H-pyrazol-4-yl)-2-(2,6-difluoro-4-((R)-1-fluoroethyl)phenyl)thiazole-4-carboxamide]
Ki (PIM1): 0.015 nM
IC50 (BaF3 parental cells): 8600 nM
IC50 (BaF3 PIM1 cells): 29.9 nM
EC50 [1]: 235 nM

CO[C@H]1[C@H](C)O[C@@H](c2c(NC(=O)c3csc(-c4c(F)cccc4F)n3)cnn2C)CC[C@@H]1N [Example 107, N-(5-((2R,5S,6R,7S)-5-amino-6-methoxy-7-methyloxepan-2-yl)-1-methyl-1H-pyrazol-4-yl)-2-(2,6-difluorophenyl)thiazole-4-carboxamide]
Ki (PIM1): 0.1 nM
IC50 (BaF3 parental cells): 20700 nM
IC50 (BaF3 PIM1 cells): 264 nM
EC50 [1]: 5800 nM

COc1cc(F)c(-c2nc(C(=O)Nc3cnn(C)c3[C@@H]3CC[C@@H](N)[C@H](F)CO3)cs2)cc1Cl [Example 108, N-[5-[(2S,5R,6S)-5-amino-6-fluoro-oxepan-2-yl]-1-methyl-pyrazol-4-yl]-2-(5-chloro-2-fluoro-4-methoxy-phenyl)thiazole-4-carboxamide]
Ki (PIM1): 0.042 nM
IC50 (BaF3 parental cells): 1900 nM
IC50 (BaF3 PIM1 cells): 80.5 nM
EC50 [1]: 490 nM

Cn1ncc(NC(=O)c2csc(-c3cc4[nH]ncc4cc3F)n2)c1[C@@H]1CC[C@@H](N)[C@H](F)CO1 [Example 109, N-[5-[(2S,5R,6S)-5-amino-6-fluoro-oxepan-2-yl]-1-methyl-pyrazol-4-yl]-2-(5-fluoro-1H-indazol-6-yl)thiazole-4-carboxamide]
Ki (PIM1): 0.019 nM
IC50 (BaF3 parental cells): 3100 nM
IC50 (BaF3 PIM1 cells): 39.4 nM
EC50 [1]: 287 nM

Cc1cnc(-c2nc(C(=O)Nc3cnn(C)c3[C@@H]3CC[C@@H](N)[C@H](F)CO3)cs2)cn1 [Example 110, N-[5-[(2S,5R,6S)-5-amino-6-fluoro-oxepan-2-yl]-1-methyl-pyrazol-4-yl]-2-(5-methylpyrazin-2-yl)thiazole-4-carboxamide]
Ki (PIM1): 0.018 nM
IC50 (BaF3 parental cells): 9200 nM
IC50 (BaF3 PIM1 cells): 63.8 nM
EC50 [1]: 148 nM

Cn1ncc(NC(=O)c2csc(-c3c(F)cc4c(c3F)OCC[C@@H]4O)n2)c1[C@@H]1CC[C@@H](N)[C@H](F)CO1 [Example 111, N-(5-((2S,5R,6S)-5-amino-6-fluorooxepan-2-yl)-1-methyl-1H-pyrazol-4-yl)-2-((S)-6,8-difluoro-4-hydroxychroman-7-yl)thiazole-4-carboxamide]
IC50 (BaF3 parental cells): > 25000 nM
IC50 (BaF3 PIM1 cells): 96.2 nM
EC50 [1]: 1500 nM

N[C@@H]1CC[C@@H](c2c(NC(=O)c3csc(-c4c(F)cccc4F)n3)cnn2CC(F)F)OC[C@H]1F [Example 115, N-(5-((2S,5R,6S)-5-amino-6-fluorooxepan-2-yl)-1-(2,2-difluoroethyl)-1H-pyrazol-4-yl)-2-(2,6-difluorophenyl)thiazole-4-carboxamide]
IC50 (BaF3 parental cells): 5500 nM
IC50 (BaF3 PIM1 cells): 29.3 nM
EC50 [1]: 181 nM

N[C@H]1CC[C@H](c2c(NC(=O)c3csc(-c4c(F)cccc4F)n3)cnn2CC(F)F)OC[C@@H]1F [Example 116, N-(5-((2R,5S,6R)-5-amino-6-fluorooxepan-2-yl)-1-(2,2-difluoroethyl)-1H-pyrazol-4-yl)-2-(2,6-difluorophenyl)thiazole-4-carboxamide]
IC50 (BaF3 parental cells): 10500 nM
IC50 (BaF3 PIM1 cells): 2750 nM
EC50 [1]: 2700 nM

C[C@@H]1O[C@H](c2c(NC(=O)c3csc(-c4c(F)cccc4F)n3)cnn2C)CC[C@@H](N)[C@@H]1F [Example 124, N-[5-[(2S,5R,6S,7S)-5-amino-6-fluoro-7-methyl-oxepan-2-yl]-1-methyl-pyrazol-4-yl]-2-(2,6-difluorophenyl)thiazole-4-carboxamide]
Ki (PIM1): 0.051 nM
EC50 [1]: 54 nM

Cn1ncc(NC(=O)c2csc(-c3cn4ccncc4n3)n2)c1[C@@H]1CC[C@@H](N)[C@H](F)CO1 [Example 125, N-(5-((2S,5R,6S)-5-amino-6-fluorooxepan-2-yl)-1-methyl-1H-pyrazol-4-yl)-2-(imidazo[1,2-a]pyrazin-2-yl)thiazole-4-carboxamide]
Ki (PIM1): 32.8 nM
EC50 [1]: > 25000 nM

N[C@H]1CC[C@H](c2[nH]ncc2NC(=O)c2csc(-c3c(F)cccc3F)n2)OC[C@@H]1F [Example 126, N-(5-((2R,5S,6R)-5-amino-6-fluorooxepan-2-yl)-1H-pyrazol-4-yl)-2-(2,6-difluorophenyl)thiazole-4-carboxamide]
Ki (PIM1): 1.48 nM
EC50 [1]: 8000 nM

Cc1cccnc1-c1nc(C(=O)Nc2cn[nH]c2[C@H]2CC[C@H](N)[C@@H](F)CO2)cs1 [Example 127, N-(5-((2R,5S,6R)-5-amino-6-fluorooxepan-2-yl)-1H-pyrazol-4-yl)-2-(3-methylpyridin-2-yl)thiazole-4-carboxamide]
Ki (PIM1): 1.1 nM
EC50 [1]: 10800 nM

Cc1cccnc1-c1nc(C(=O)Nc2cn[nH]c2[C@@H]2CC[C@@H](N)[C@H](F)CO2)cs1 [Example 128, N-(5-((2S,5R,6S)-5-amino-6-fluorooxepan-2-yl)-1H-pyrazol-4-yl)-2-(3-methylpyridin-2-yl)thiazole-4-carboxamide]
Ki (PIM1): 0.777 nM
EC50 [1]: 3000 nM

N[C@@H]1CC[C@@H](c2[nH]ncc2NC(=O)c2csc(-c3c(F)cccc3F)n2)OC[C@H]1F [Example 129, N-(5-((2S,5R,6S)-5-amino-6-fluorooxepan-2-yl)-1H-pyrazol-4-yl)-2-(2,6-difluorophenyl)thiazole-4-carboxamide]
Ki (PIM1): 0.958 nM
EC50 [1]: 7300 nM
